Data from patent US20240285539A1, “PROTECTIVE COATING FOR MOISTURE SENSITIVE PHARMACEUTICAL COMPOSITIONS” (R.P. Scherer Technologies, LLC, priority 2021, published 2024).

Assay: Solubility, hygroscopicity and moisture sensitivity of AKST-4290 API
Type: physicochemical
Text: Applicant has been able to prevent degradation utilizing the wax coating process described herein. This technique reduced the coating time and limited water uptake of core tablets improving impurity profile at T-0.
Specifically, the wax was applied as a sub-coat to the core tablets. In the case of AKST-4290, one of the purposes of this wax coat was to protect the API in the tablets from moisture. […] Although the relative humidity can be controlled during the upstream process of creating the tablet, this cannot be achieved in a coating process with aqueous solutions.

Cc1cc(C(=O)N(C)C)cc(NC(=O)[C@H]2CCC(=O)N2C2CCN(Cc3ccc(Cl)c(C)c3)CC2)n1 [AKST-4290]
Hygroscopicity of API (in words): highly hygroscopic | Solubility of API (in words): highly soluble | Stability on exposure to humidity (relative humidity over 40%, even for a couple of minutes): undergoes both physical and chemical changes
